The text below walks through data of publication PMC7024313, “Identification and Repurposing of Trisubstituted Harmine Derivatives as Novel Inhibitors of Mycobacterium tuberculosis Phosphoserine Phosphatase” (Molecules, 2020).

Assay [1] has as its target T1, SerB2 (M. tuberculosis phosphoserine phosphatase) (Mycobacterium tuberculosis, UniProt O53289). Briefly: malachite green phosphatase assay, slope replot fitted to Hill-type model. The class given is biochemical. The source says: malachite green phosphatase assay, slope replot fitted to Hill-type model on SerB2 (M. tuberculosis phosphoserine phosphatase)
For assay [2], the target named is T1, SerB2 (M. tuberculosis phosphoserine phosphatase). The assay is described as follows: malachite green phosphatase assay. Format: biochemical. From the text: malachite green phosphatase assay on SerB2 (M. tuberculosis phosphoserine phosphatase)

T1 sequence (O53289 whole entry): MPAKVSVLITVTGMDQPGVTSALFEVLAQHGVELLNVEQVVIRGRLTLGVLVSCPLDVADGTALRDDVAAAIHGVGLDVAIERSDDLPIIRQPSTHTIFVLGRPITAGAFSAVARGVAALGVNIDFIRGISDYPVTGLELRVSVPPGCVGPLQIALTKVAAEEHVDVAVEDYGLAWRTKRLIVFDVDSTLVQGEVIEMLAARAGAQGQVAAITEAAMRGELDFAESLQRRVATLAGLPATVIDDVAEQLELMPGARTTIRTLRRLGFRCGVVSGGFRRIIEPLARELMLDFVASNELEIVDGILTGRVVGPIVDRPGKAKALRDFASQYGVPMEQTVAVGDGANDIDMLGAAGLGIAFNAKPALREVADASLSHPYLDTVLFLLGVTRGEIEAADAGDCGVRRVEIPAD

For the compound `Cc1c2c(cc[n+]1CCC(C)C)c1ccc(OCCC(C)C)cc1n2CCC(C)C` [compound 88, 88], the affinity in assay [1] corresponds to a Ki of 18.3 ± 2.3 µM.

For the compound `Cc1c2c(cc[n+]1CCC(C)C)c1ccc(OCC3CCCCC3)cc1n2CC1CCCCC1` [compound 90, 90], at 10 µM the inhibition in assay [2] was 16.5 ± 13.3%. Turning to `Cc1c2c(cc[n+]1CCc1ccccc1)c1ccc(OCC3CCCCC3)cc1n2CC1CCCCC1` [compound 91, 91], the Ki (commonly the dissociation constant of the complex between target and ligand, obtained from inhibition or displacement) in assay [1] came out at 3.27 ± 0.12 µM. As to `Cc1c2c(cc[n+]1CCc1ccccc1)c1ccc(OCc3ccccc3)cc1n2Cc1ccccc1` [compound 94, 94], the inhibition (as a rule, the relative decrease from the control value, in per cent) at 10 µM in assay [2] amounted to 15.6 ± 4.3%. Consider `Cc1c2c(cc[n+]1Cc1ccc3ccccc3c1)c1ccc(OCc3ccccc3)cc1n2Cc1ccccc1` [compound 95, 95], for which the Ki in assay [1] was found to be 6.66 ± 0.39 µM. The compound `Cc1c2c(cc[n+]1CCC1CCCCC1)c1ccc(OCC3CCCCC3)cc1n2CC1CCCCC1` [compound 124, 7-(cyclohexylmethoxy)-9-(cyclohexylmethyl)-1-methyl-2-(2-cyclohexylethyl)-β -carboline-2-ium bromide] had a Ki in assay [1] of 1.75 ± 0.11 µM. Compared with the last compound, the Ki is about 3.8-fold lower.
